Measured values reported in ChEMBL document CHEMBL1138989, “Selective antiproliferative activity of hydroxynaphthyl-beta-D-xylosides” (J Med Chem, 2006).
Calls of active or inactive are those of the source. No cut-off for these calls is given here.

Columns and labels:
[1] = test system: T-24; assay: Antiproliferative activity against human bladder carcinoma T24 cells; format: functional; conditions: read-out: ED50 (the source's name)
[2] = test system: HFL1; assay: Antiproliferative activity against human fibroblast HFL1 cells; format: functional; conditions: read-out: ED50 (the source's name)
[3] = test system: T-24; assay: Ability to prime Heparan sulfate synthesis in T24 cells at 0.1 mM; format: functional, Homo sapiens
[4] = test system: BALB/3T3; assay: Antiproliferative activity against mouse fibroblast 3T3 A31 cells; format: functional; conditions: read-out: ED50 (the source's name)
[5] = test system: SV3T3; assay: Antiproliferative activity against virus transformed mouse fibroblast 3T3 SV40 cells; format: functional; conditions: read-out: ED50 (the source's name)
[6] = Dissociation constant, pKa of the compound; format: physicochemical
[7] = test system: T-24; assay: Induction of apoptosis in T24 cells using TUNEL assay; format: functional, cell-based; conditions: Homo sapiens

Compound | EC50 [1] | EC50 [2] | Activity [3] | EC50 [4] | EC50 [5] | pKa [6] | Activity [7]
Oc1cccc2c(O)cccc12 | < 10 µM | 20 µM |  |  |  |  | 
Oc1cccc2cccc(O)c12 | 10 µM | 20 µM |  |  |  |  | 
Oc1ccc2cccc(O[C@@H]3OC[C@@H](O)[C@H](O)[C@H]3O)c2c1 | 370 µM | 370 µM | 15% | 260 µM | 550 µM | 9.35 | 
Oc1ccc2cc(O[C@@H]3OC[C@@H](O)[C@H](O)[C@H]3O)ccc2c1 | 100 µM | 500 µM | 30% | 440 µM | 320 µM | 9.63 | Active
Oc1cc2ccccc2cc1O | 30 µM | 40 µM |  |  |  |  | 
Oc1c(O[C@@H]2OC[C@@H](O)[C@H](O)[C@H]2O)ccc2ccccc12 | 160 µM | 40 µM | 22% | 120 µM | 120 µM | 8.72 | 
Oc1ccc2cccc(O)c2c1 | < 10 µM | < 25 µM |  |  |  |  | 
Oc1ccc2c(O[C@@H]3OC[C@@H](O)[C@H](O)[C@H]3O)cccc2c1 | 125 µM | 370 µM | 13% | 210 µM | > 500 µM | 9.34 | 
Oc1ccc(O)c2ccccc12 | 0.7 µM | 1 µM |  |  |  |  | 
Oc1ccc2ccccc2c1O[C@@H]1OC[C@@H](O)[C@H](O)[C@H]1O | 150 µM | 80 µM | 2% | 10 µM | 65 µM | 8.63 | 
Oc1ccc2ccc(O[C@@H]3OC[C@@H](O)[C@H](O)[C@H]3O)cc2c1 | 500 µM | 500 µM | 37% | 300 µM | 460 µM | 9.41 | 
Oc1cc(O)c2ccccc2c1 | 70 µM | 100 µM |  |  |  |  | 
Oc1cc2ccccc2cc1O[C@@H]1OC[C@@H](O)[C@H](O)[C@H]1O | 400 µM | 190 µM | 28% | 25 µM | 180 µM | 8.76 | 
Oc1ccc2ccccc2c1O | 13 µM | 25 µM |  |  |  |  | 
Oc1cc(O[C@@H]2OC[C@@H](O)[C@H](O)[C@H]2O)c2ccccc2c1 | 100 µM | 240 µM | 14% | 130 µM | 275 µM | 9.22 | 
Oc1ccc2c(O)cccc2c1 | 20 µM | 70 µM |  |  |  |  | 
Oc1cc(O[C@@H]2OC[C@@H](O)[C@H](O)[C@H]2O)cc2ccccc12 | 25 µM | 320 µM | 20% | 410 µM | 575 µM | 8.66 | 
O[C@@H]1[C@@H](O)[C@H](Oc2ccc3ccccc3c2)OC[C@H]1O |  |  |  |  |  |  | inactive
Oc1cccc2cc(O[C@@H]3OC[C@@H](O)[C@H](O)[C@H]3O)ccc12 | 600 µM | 500 µM | 12% | > 500 µM | 430 µM | 9.17 | 
Oc1cccc2cccc(O[C@@H]3OC[C@@H](O)[C@H](O)[C@H]3O)c12 | 220 µM | 180 µM | 27% | 185 µM | 340 µM | 10.1 | 
Oc1cccc2ccc(O[C@@H]3OC[C@@H](O)[C@H](O)[C@H]3O)cc12 | 420 µM | 330 µM | 27% | 160 µM | 510 µM | 9.29 | 
Oc1ccc2cc(O)ccc2c1 | < 10 µM | < 25 µM |  |  |  |  | 
Oc1ccc(O[C@@H]2OC[C@@H](O)[C@H](O)[C@H]2O)c2ccccc12 | 1 µM | 6 µM | 12% | 165 µM | 105 µM | 9.4 | 
Oc1cccc2c(O[C@@H]3OC[C@@H](O)[C@H](O)[C@H]3O)cccc12 | 470 µM | 500 µM | 29% | > 500 µM | > 500 µM | 9.16 | 
Oc1ccc2ccc(O)cc2c1 | 30 µM | 70 µM |  |  |  |  | 
